Data reported in patent US12227520B2 (priority 2019, dated 2025).
Read-outs that look alike come from different tables or passages of the source.

Legend:
HIV-1 (IIIB) = experiment: Antiviral assay in MT-4 cells (HIV MT-4 antiviral assay); assay type: cell-based; details: Human immunodeficiency virus 1, IIIB, MT4, 120 h, HIV-1 (IIIB) in MT-4 cells, 5 days incubation
Protocol: Compounds were tested in a high-throughput 384-well assay format for their ability to inhibit the replication of HIV-1 (IIIB) in MT-4 cells. Compounds were serially diluted (1:3) in DMSO on 384-well polypropylene plates and further diluted 200-fold into complete RPMI media (10% FBS, 1% P/S) using the Biotek Micro Flow and Labcyte ECHO acoustic dispenser. Each plate contained up to 8 test compounds, with negative (No Drug Control) and 5 μM AZT positive controls. MT-4 cells were pre-infected with 10 μL of either RPMI (mock-infected) or a fresh 1:250 dilution of HIV-1 IIIB concentrated virus stock. Infected and uninfected MT-4 cells were further diluted in complete RPMI media and added to each plate using a Micro Flow dispenser. After 5 days incubation in a humidified and temperature controlled incubator (37° C.), Cell Titer Glo (Promega) was added to the assay plates and chemiluminescence read using an Envision plate-reader.

[1] = Cytotoxicity assay in MT-4 cells; assay type: cell-based, human; details: human, uninfected MT-4 cells, 5 days incubation; read-out: CC50
Protocol: Each plate contained up to 8 test compounds, with negative (No Drug Control) and 5 μM AZT positive controls. MT-4 cells were pre-infected with 10 μL of either RPMI (mock-infected) or a fresh 1:250 dilution of HIV-1 IIIB concentrated virus stock. Infected and uninfected MT-4 cells were further diluted in complete RPMI media and added to each plate using a Micro Flow dispenser. After 5 days incubation in a humidified and temperature controlled incubator (37° C.), Cell Titer Glo (Promega) was added to the assay plates and chemiluminescence read using an Envision plate-reader. […] Assays were performed as above except uninfected MT-4 cells were added to each well containing test compound. In addition, 10 μM puromycin was added to the last column of each assay plate to assess a base level of cytotoxicity.

SMILES | EC50 (HIV-1 (IIIB); read-out: EC50) | CC50 at 5 days [1] | EC50 (HIV-1 (IIIB))
CO[C@H]1CC[C@H]2CN(C1)C(=O)c1c(O)c(=O)c(C(=O)NCc3c(F)cc(F)cc3F)cn12 [Example 91, (4S,7S)-12-hydroxy-4-methoxy-1,11-dioxo-N-(2,4,6-trifluorobenzyl)-1,4,5,6,7,11-hexahydro-3H-2,7-methanopyrido[1,2-a][1,4]diazonine-10-carboxamide] | 23.2 nM | > 50000 nM | 
O=C(NCc1ccc(Cl)cc1Cl)c1cn2c(c(O)c1=O)C(=O)N1CCCC[C@H]2C1 [Example 153, (7S)—N-(2,4-dichlorobenzyl)-12-hydroxy-1,11-dioxo-1,4,5,6,7,11-hexahydro-3H-2,7-methanopyrido[1,2-a][1,4]diazonine-10-carboxamide] | 29.8 nM | 5610 nM | 
O=C(NCc1c(F)cc(F)cc1F)c1cn2c(c(O)c1=O)C(=O)N1CCSC[C@@H]2C1 [Example 155-1, (7S)-12-hydroxy-1,11-dioxo-N-(2,4,6-trifluorobenzyl)-1,3,4,6,7,11-hexahydro-2,7-methanopyrido[1,2-d][1,4,7]thiadiazonine-10-carboxamide] | 3.05 nM | 39500 nM | 
C[C@H]1CCCN2C[C@H]1n1cc(C(=O)NCc3c(F)cc(F)cc3F)c(=O)c(O)c1C2=O [Example 170, (6S,7S)-12-hydroxy-6-methyl-1,11-dioxo-N-(2,4,6-trifluorobenzyl)-1,4,5,6,7,11-hexahydro-3H-2,7-methanopyrido[1,2-a][1,4]diazonine-10-carboxamide] | 1.21 nM | 9860 nM | 
CN1CCN2CC(C1)n1cc(C(=O)NCc3ccc(F)cc3F)c(=O)c(O)c1C2=O (stereo not shown) [Example 33, N-(2,4-difluorobenzyl)-12-hydroxy-5-methyl-1,11-dioxo-1,4,5,6,7,11-hexahydro-3H-2,7-methanopyrido[1,2-a][1,4,7]triazonine-10-carboxamide] | 7 nM | > 50000 nM | 
O=C(NCc1ccc(F)cc1F)c1cn2c(c(O)c1=O)C(=O)N1C[C@@H]2CCc2cc(Cl)ccc21 [Example 49-1, (12S)-2-chloro-N-(2,4-difluorobenzyl)-7-hydroxy-6,8-dioxo-6,8,13,14-tetrahydro-12H-5,12-methanobenzo[e]pyrido[1,2-a][1,4]diazonine-9-carboxamide] | 36.5 nM | > 15700 nM | 
CS(=O)(=O)N1CCN2CC(C1)n1cc(C(=O)NCc3ccc(F)cc3F)c(=O)c(O)c1C2=O (stereo not shown) [Example 32, N-(2,4-difluorobenzyl)-12-hydroxy-5-(methylsulfonyl)-1,11-dioxo-1,4,5,6,7,11-hexahydro-3H-2,7-methanopyrido[1,2-a][1,4,7]triazonine-10-carboxamide] | > 100 nM | > 50000 nM | 
Cn1ncc2c1C[C@H]1CN(C2)C(=O)c2c(O)c(=O)c(C(=O)NCc3c(F)cc(F)cc3F)cn21 [Example 87-2, (12S)-7-hydroxy-1-methyl-6,8-dioxo-N-(2,4,6-trifluorobenzyl)-1,4,6,8,12,13-hexahydro-5,12-methanopyrazolo[4,3-f]pyrido[1,2-a][1,4]diazonine-9-carboxamide] | 1.74 nM | > 50000 nM | 
C[C@]1(F)CC[C@H]2CN(C1)C(=O)c1c(O)c(=O)c(C(=O)NCc3c(F)cc(F)cc3F)cn12 [Example 132-2, (4S,7S)-4-fluoro-12-hydroxy-4-methyl-1,11-dioxo-N-(2,4,6-trifluorobenzyl)-1,4,5,6,7,11-hexahydro-3H-2,7-methanopyrido[1,2-a][1,4]diazonine-10-carboxamide] | 2.78 nM | 25700 nM | 
O=C(NCc1ccc(F)cc1F)c1cn2c(c(O)c1=O)C(=O)N1CCCC2CC1 (stereo not shown) [Example 23, N-(2,4-difluorobenzyl)-11-hydroxy-1,10-dioxo-1,3,4,5,6,10-hexahydro-2,6-ethanopyrido[1,2-a][1,4]diazocine-9-carboxamide] | 59.9 nM | 12000 nM | 
O=C(NCc1cccc(Cl)c1F)c1cn2c(c(O)c1=O)C(=O)N1CCCC[C@H]2C1 [Example 126, (7S)—N-(3-chloro-2-fluorobenzyl)-12-hydroxy-1,11-dioxo-1,4,5,6,7,11-hexahydro-3H-2,7-methanopyrido[1,2-a][1,4]diazonine-10-carboxamide] |  | 15400 nM | 4.75 nM
C[C@]1(O)CCN2C[C@H](C1)n1cc(C(=O)NCc3c(F)cc(F)cc3F)c(=O)c(O)c1C2=O [Example 107-1, (5S,7S)-5,12-dihydroxy-5-methyl-1,11-dioxo-N-(2,4,6-trifluorobenzyl)-1,4,5,6,7,11-hexahydro-3H-2,7-methanopyrido[1,2-a][1,4]diazonine-10-carboxamide] | 15.1 nM | > 50000 nM | 
O=C(NCc1ccc(F)c(Cl)c1F)c1cn2c(c(O)c1=O)C(=O)N1Cc3cc(F)c(F)cc3C[C@H]2C1 [Example 139-2, (6S)—N-(3-chloro-2,4-difluorobenzyl)-9,10-difluoro-1-hydroxy-2,14-dioxo-2,7,12,14-tetrahydro-6H-6,13-methanobenzo[f]pyrido[1,2-a][1,4]diazonine-3-carboxamide] | 9.11 nM | > 50000 nM | 
Cc1noc2c1C[C@H]1CN(C2)C(=O)c2c(O)c(=O)c(C(=O)NCc3c(F)cc(F)cc3F)cn21 (single isomer, unassigned) [Example 135-2] | 4.77 nM | > 50000 nM | 
CC1CCN2C[C@H](C1)n1cc(C(=O)NCc3c(F)cc(F)cc3F)c(=O)c(O)c1C2=O (stereo partly drawn) [Example 124, (7S)-12-hydroxy-5-methyl-1,11-dioxo-N-(2,4,6-trifluorobenzyl)-1,4,5,6,7,11-hexahydro-3H-2,7-methanopyrido[1,2-a][1,4]diazonine-10-carboxamide] | 2.79 nM | 15400 nM | 
CO[C@H]1CCN2C[C@H](C1)n1cc(C(=O)NCc3c(F)cc(F)cc3F)c(=O)c(O)c1C2=O [Example 103-2, (5S,7S)-12-hydroxy-5-methoxy-1,11-dioxo-N-(2,4,6-trifluorobenzyl)-1,4,5,6,7,11-hexahydro-3H-2,7-methanopyrido[1,2-a][1,4]diazonine-10-carboxamide] | 9.2 nM | > 50000 nM | 
O=C(NCc1c(F)cc(F)cc1F)c1cn2c(c(O)c1=O)C(=O)N1C[C@H]2CCc2ccc(F)cc21 [Example 86-1, (12R)-3-fluoro-7-hydroxy-6,8-dioxo-N-(2,4,6-trifluorobenzyl)-6,8,13,14-tetrahydro-12H-5,12-methanobenzo[e]pyrido[1,2-a][1,4]diazonine-9-carboxamide] | 27 nM | > 30300 nM | 
O=C(NCc1ccc(F)c(Cl)c1F)c1cn2c(c(O)c1=O)C(=O)N1C[C@H]2CCCc2ccccc21 [Example 97-2, (6R)—N-(3-chloro-2,4-difluorobenzyl)-1-hydroxy-2,15-dioxo-2,6,7,8,9,15-hexahydro-6,14-methanobenzo[e]pyrido[1,2-a][1,4]diazecine-3-carboxamide] | 6.05 nM | 16300 nM | 
O=C(NCc1ccc(F)cc1F)c1cn2c(c(O)c1=O)C(=O)N1CCCOCC2C1 (racemic) [rac-1, N-(2,4-Difluorobenzyl)-13-hydroxy-1,12-dioxo-1,4,5,7,8,12-hexahydro-3H-2,8-methanopyrido[1,2-d][1,4,7]oxadiazecine-11-carboxamide] | 3.9 nM | > 47900 nM | 
O=C(NCc1c(F)cc(F)cc1F)c1cn2c(c(O)c1=O)C(=O)N1CC2CCc2sccc21 (stereo in doubt) [Example 104-2, (11S)-6-hydroxy-5,7-dioxo-N-(2,4,6-trifluorobenzyl)-5,7,12,13-tetrahydro-11H-4,11-methanopyrido[1,2-a]thieno[3,2-e][1,4]diazonine-8-carboxamide] | 35.3 nM | 14000 nM | 
